Several values for one entry are separate records, joined by “and”; a condition that tells them apart may be missing. Equal values may be shown once.
Test: Drug elution from SADBE dermal patches into pig skin (residual SADBE by HPLC)
Format: in vivo
Conditions: for Percent of SADBE presumed in skin / SADBE area in kimwipe swab / SADBE area, 255 nm, 24 min. (extracted from patch) / net HPLC area of SADBE lost and presumed in skin: 2% SADBE in DMSO
Protocol: Squaric acid dibutyl ester (SADBE) at 2% (w/v) concentration in dimethylsulfoxide (DMSO) was added to a skin patch for dermal dosing of SADBE to test for a delayed-type hypersensitivity response or other skin irritation and to test how much SADBE disappears from the patch with different volumes and time of exposure, and is therefore presumed to enter the skin.
One purpose of this study was to determine the time course of drug elution from the dermal patches into the skin. For that purpose, patches were applied to the skin of pigs and removed 1, 3, 6, or 24 hours later, and then extracted to determine the amount of residual SADBE drug remaining in the patch. The missing SADBE from the amount originally loaded onto the patch is presumed to have transferred into the pig skin.
The skin patches consisted of a polymer backing layer similar to 3M 9916 polyester nonwoven backing layer with adhesive, 3M 9733 polyester film laminate barrier layer, and Precision Fabrics Group 0700-00010 polyester gauze layer. The gauze was heat sealed to the barrier layer. The gauze patch area was about 3 cm^2.
Patches were removed from the pigs at the indicated times and immediately the reservoir portion of the patch was cut out and placed in a 50 ml tube with 10 ml of DMSO.
Immediately after removing the patch, a kimwipe was used to swab the spot on the pig where the patch had been in order to attempt to recover any SADBE that was on the surface of the skin and had not absorbed into the skin. After wiping with the kimwipe, the kimwipe was placed in a separate 50 ml tube containing 10 ml of DMSO.
The tubes of DMSO with patches or kimwipe were transported to our laboratory, shaken at 200 rpm for 10 minutes, and then the DMSO from each tube was placed in an injection vial and analyzed for SADBE content by HPLC on a C18 column with the program SADBE3-50 ul. SADBE elutes in this program at about 24.0 minutes and absorbs at 255 nm, so the area of the 24.0 min peak at 255 nm was used to quantify SADBE.
This program is called SADBE3-50 ul on the HPLC, with 50 ul injection. Column: USP L1 (ODS), 250 mm×4.6 mm, 5 um (C18) • Agilent part number 880995-902 Mobile phase: A: 25 mM KH2PO4 (pH5) (not pH adjusted) • B: Methanol Flow rate: 1.0 mL/min
On Aug. 6, 2018, the first set of patches was placed on 3 pigs. The patches were all held in place on the pigs by an elastic bandage wrapped around the torso of each of the pigs over the patches. The net HPLC area of SADBE lost and presumed in skin is calculated as the area predicted from the 20 ul and 50 ul controls minus the observed HPLC area of SADBE extracted from the test patch that was applied to skin.
SADBE patch testing on pigs 4 and 5 was done on Aug. 13, 2018. In this case, patches on both pigs were covered with TEGADERM™, and on one pig the TEGADERM™ was further covered by an elastic bandage as on August 6.
Summary and Conclusions of Drug Elution from Patches: The percentage of SADBE lost from the patch, and therefore presumed to be transferred into the skin, was calculated for each patch and the results for a given volume (volume of 2% SADBE solution loaded onto the patch) and time point (time patch was on the pig) were averaged, broken down by whether an elastic bandage held the patch in place on the pig or not, was averaged.

[1] = 20 ul on patch, removed at 1 h, elastic bandage (Aug. 6)
[2] = 20 ul on patch, removed at 3 h, elastic bandage (Aug. 6)
[3] = 20 ul on patch, removed at 6 h, elastic bandage (Aug. 6)
[4] = 20 ul on patch, removed at 24 h, elastic bandage (Aug. 6)
[5] = 20 ul, removed at 3 h, TEGADERM, Ace bandage no (Aug. 13)
[6] = 20 ul, removed at 3 h, TEGADERM, Ace bandage yes (Aug. 13)
[7] = 20 ul, removed at 6 h, TEGADERM, Ace bandage no (Aug. 13)
[8] = 20 ul, removed at 6 h, TEGADERM, Ace bandage yes (Aug. 13)
[9] = 50 ul on patch, removed at 1 h, elastic bandage (Aug. 6)
[10] = 50 ul on patch, removed at 3 h, elastic bandage (Aug. 6)
[11] = 50 ul on patch, removed at 6 h, elastic bandage (Aug. 6)
[12] = 50 ul on patch, removed at 24 h, elastic bandage (Aug. 6)
[13] = 50 ul, removed at 3 h, TEGADERM, Ace bandage no (Aug. 13)
[14] = 50 ul, removed at 3 h, TEGADERM, Ace bandage yes (Aug. 13)
[15] = 50 ul, removed at 6 h, TEGADERM, Ace bandage no (Aug. 13)
[16] = 50 ul, removed at 6 h, TEGADERM, Ace bandage yes (Aug. 13)
[17] = 80 ul on patch, removed at 1 h, elastic bandage (Aug. 6)
[18] = 80 ul on patch, removed at 3 h, elastic bandage (Aug. 6)
[19] = 80 ul on patch, removed at 6 h, elastic bandage (Aug. 6)
[20] = 80 ul on patch, removed at 24 h, elastic bandage (Aug. 6)

CCCCOc1c(OCCCC)c(=O)c1=O [SADBE, squaric acid dibutyl ester]
Percent of SADBE presumed in skin [1]: 42.8% and 45.8% | SADBE area in kimwipe swab [1]: 35 and 39 | SADBE area, 255 nm, 24 min. (extracted from patch) [1]: 1941 and 1838 | net HPLC area of SADBE lost and presumed in skin [1]: 1452 and 1555 | Percent of SADBE presumed in skin [2]: 78.3% and 71.9% | SADBE area in kimwipe swab [2]: 38 and 44 | SADBE area, 255 nm, 24 min. (extracted from patch) [2]: 735 and 954 | net HPLC area of SADBE lost and presumed in skin [2]: 2658 and 2439 | Percent of SADBE presumed in skin [3]: 92.2% and 92.8% | SADBE area in kimwipe swab [3]: 40 and 50 | SADBE area, 255 nm, 24 min. (extracted from patch) [3]: 265 and 244 | net HPLC area of SADBE lost and presumed in skin [3]: 3128 and 3149 | Percent of SADBE presumed in skin [4]: 94.6% and 95.5% | SADBE area in kimwipe swab [4]: 19 and 21 | SADBE area, 255 nm, 24 min. (extracted from patch) [4]: 182 and 151 | net HPLC area of SADBE lost and presumed in skin [4]: 3211 and 3242 | Percent of SADBE presumed in skin [5]: 60.4% and 38.0% | SADBE area, 255 nm, 24 min. (extracted from patch) [5]: 1327 and 2076 | net HPLC area of SADBE lost and presumed in skin [5]: 2021 and 1272 | Percent of SADBE presumed in skin [6]: 77.5% and 74.9% | SADBE area, 255 nm, 24 min. (extracted from patch) [6]: 753 and 842 | net HPLC area of SADBE lost and presumed in skin [6]: 2595 and 2506 | Percent of SADBE presumed in skin [7]: 88.4% and 70.5% | net HPLC area of SADBE lost and presumed in skin [7]: 2960 and 2362 | Percent of SADBE presumed in skin [8]: 90.2% and 88.4% | SADBE area, 255 nm, 24 min. (extracted from patch) [8]: 328 and 390 | net HPLC area of SADBE lost and presumed in skin [8]: 3020 and 2958 | Percent of SADBE presumed in skin [9]: 38.1% and 43.0% | SADBE area in kimwipe swab [9]: 78 and 75 | SADBE area, 255 nm, 24 min. (extracted from patch) [9]: 5108 and 4698 | net HPLC area of SADBE lost and presumed in skin [9]: 3141 and 3551 | Percent of SADBE presumed in skin [10]: 67.2% and 78.9% | SADBE area in kimwipe swab [10]: 52 and 78 | SADBE area, 255 nm, 24 min. (extracted from patch) [10]: 2707 and 1741 | net HPLC area of SADBE lost and presumed in skin [10]: 5542 and 6508 | Percent of SADBE presumed in skin [11]: 84.9% and 91.9% | SADBE area in kimwipe swab [11]: 50 and 45 | SADBE area, 255 nm, 24 min. (extracted from patch) [11]: 1243 and 666 | net HPLC area of SADBE lost and presumed in skin [11]: 7006 and 7583 | Percent of SADBE presumed in skin [12]: 97.3% and 98.4% | SADBE area in kimwipe swab [12]: 20 and 22 | SADBE area, 255 nm, 24 min. (extracted from patch) [12]: 224 and 128 | net HPLC area of SADBE lost and presumed in skin [12]: 8025 and 8121 | Percent of SADBE presumed in skin [13]: 50.8% and 56.9% | SADBE area, 255 nm, 24 min. (extracted from patch) [13]: 4058 and 3549 | net HPLC area of SADBE lost and presumed in skin [13]: 4184 and 4693 | Percent of SADBE presumed in skin [14]: 57.7% and 32.1% | SADBE area, 255 nm, 24 min. (extracted from patch) [14]: 3484 and 5599 | net HPLC area of SADBE lost and presumed in skin [14]: 4758 and 2643 | Percent of SADBE presumed in skin [15]: 70.2% and 54.9% | SADBE area, 255 nm, 24 min. (extracted from patch) [15]: 2454 and 3717 | net HPLC area of SADBE lost and presumed in skin [15]: 5788 and 4525 | Percent of SADBE presumed in skin [16]: 76.4% and 83.3% | SADBE area, 255 nm, 24 min. (extracted from patch) [16]: 1949 and 1376 | net HPLC area of SADBE lost and presumed in skin [16]: 6293 and 6866 | Percent of SADBE presumed in skin [17]: 24.6% and 30.2% | SADBE area in kimwipe swab [17]: 105 and 98 | SADBE area, 255 nm, 24 min. (extracted from patch) [17]: 9952 and 9208 | net HPLC area of SADBE lost and presumed in skin [17]: 3246 and 3990 | Percent of SADBE presumed in skin [18]: 27.9% and 49.0% | SADBE area, 255 nm, 24 min. (extracted from patch) [18]: 9517 and 6734 | net HPLC area of SADBE lost and presumed in skin [18]: 3681 and 6464 | Percent of SADBE presumed in skin [19]: 83.4% and 81.3% | SADBE area, 255 nm, 24 min. (extracted from patch) [19]: 2192 and 2471 | net HPLC area of SADBE lost and presumed in skin [19]: 11006 and 10727 | Percent of SADBE presumed in skin [20]: 96.1% and 97.9% | SADBE area in kimwipe swab [20]: 24 and 20 | SADBE area, 255 nm, 24 min. (extracted from patch) [20]: 509 and 273 | net HPLC area of SADBE lost and presumed in skin [20]: 12689 and 12925 | loaded drug transferred into the skin (by 6 hours, all loading volumes tested, with the elastic bandage): over 80% | loaded drug transferred into the skin (by 24 hours): over 95% | Average transfer of SADBE into skin (with elastic bandage, 20 ul of 2% SADBE, patch worn 1 hour): 44.3% (n = 2) | Average transfer of SADBE into skin (with elastic bandage, 20 ul of 2% SADBE, patch worn 3 hours): 75.6% (n = 4) | Average transfer of SADBE into skin (with elastic bandage, 20 ul of 2% SADBE, patch worn 6 hours): 90.9% (n = 4) | Average transfer of SADBE into skin (with elastic bandage, 20 ul of 2% SADBE, patch worn 24 hours): 95.1% (n = 2) | Average transfer of SADBE into skin (with elastic bandage, 50 ul of 2% SADBE, patch worn 1 hour): 40.6% (n = 2) | Average transfer of SADBE into skin (with elastic bandage, 50 ul of 2% SADBE, patch worn 3 hours): 59.0% (n = 4) | Average transfer of SADBE into skin (with elastic bandage, 50 ul of 2% SADBE, patch worn 6 hours): 84.1% (n = 4) | Average transfer of SADBE into skin (with elastic bandage, 50 ul of 2% SADBE, patch worn 24 hours): 97.9% (n = 2) | Average transfer of SADBE into skin (with elastic bandage, 80 ul of 2% SADBE, patch worn 1 hour): 27.4% (n = 2) | Average transfer of SADBE into skin (with elastic bandage, 80 ul of 2% SADBE, patch worn 3 hours): 38.4% (n = 2) | Average transfer of SADBE into skin (with elastic bandage, 80 ul of 2% SADBE, patch worn 6 hours): 82.3% (n = 2) | Average transfer of SADBE into skin (with elastic bandage, 80 ul of 2% SADBE, patch worn 24 hours): 97.0% (n = 2) | Average transfer of SADBE into skin (without elastic bandage, 20 ul of 2% SADBE, patch worn 3 hours): 49.2% (n = 2) | Average transfer of SADBE into skin (without elastic bandage, 20 ul of 2% SADBE, patch worn 6 hours): 79.5% (n = 2) | Average transfer of SADBE into skin (without elastic bandage, 50 ul of 2% SADBE, patch worn 3 hours): 53.9% (n = 2) | Average transfer of SADBE into skin (without elastic bandage, 50 ul of 2% SADBE, patch worn 6 hours): 62.6% (n = 2)
